According to ChEMBL document CHEMBL2034879, “Discovery of SCH 900271, a Potent Nicotinic Acid Receptor Agonist for the Treatment of Dyslipidemia” (ACS Med Chem Lett, 2012):
Calls of active or inactive are those of the source. No cut-off for these calls is given here.

Legend:
[1] = molecular target: Hydroxycarboxylic acid receptor 3 (Homo sapiens, UniProt P49019); assay: Agonist activity at human GPR109b; assay type: functional
[2] = Agonist activity at dog GPR109a; assay type: functional, Canis lupus familiaris
Rattus norvegicus [3] = assay: Antidyslipidemic activity in po dosed fasted Sprague-Dawley rat assessed as reduction in free fatty acid level in plasma; assay type: functional; settings: for minimal effective dose: read-out: MED
Canis familiaris [4] = assay: Antidyslipidemic activity in fasted beagle dog assessed as reduction in free fatty acid level in plasma at 3 mg/kg, po after 1 hr relative to vehicle-treated control; assay type: functional, Canis lupus familiaris; set-up: scale not given: the % may be the effect or the level left
[5] = molecular target: Hydroxycarboxylic acid receptor 2 (Rattus norvegicus, UniProt Q80Z39); assay: Agonist activity at rat GPR109a; assay type: functional
Canis familiaris [6] = assay: Antidyslipidemic activity in po dosed fasted beagle dog assessed as reduction in free fatty acid level in plasma after 4 hr relative to vehicle-treated control; assay type: functional, organism-based; settings: Canis lupus familiaris
Canis familiaris [7] = assay: Toxicity in beagle dog assessed as flushing at 3 mg/kg, po; assay type: organism-based, Canis lupus familiaris; set-up: dose 3 mg/kg, route oral; settings: in vivo
[8] = molecular target: Hydroxycarboxylic acid receptor 2 (Mus musculus, UniProt Q9EP66); assay: Agonist activity at mouse GPR109a; assay type: functional
Rattus norvegicus [9] = assay: Antidyslipidemic activity in fasted Sprague-Dawley rat assessed as reduction in triglyceride level in plasma at 1 mg/kg, po after 1 hr relative to vehicle-treated control; assay type: functional; set-up: scale not given: the % may be the effect or the level left
Rattus norvegicus [10] = assay: Antidyslipidemic activity in fasted Sprague-Dawley rat assessed as reduction in free fatty acid level in plasma at 3 mg/kg, po after 1 hr relative to vehicle-treated control; assay type: functional; set-up: scale not given: the % may be the effect or the level left
Rattus norvegicus [11] = assay: Antidyslipidemic activity in fasted Sprague-Dawley rat assessed as reduction in triglyceride level in plasma at 3 mg/kg, po after 1 hr relative to vehicle-treated control; assay type: functional; set-up: scale not given: the % may be the effect or the level left
Rattus norvegicus [12] = assay: Antidyslipidemic activity in fasted Sprague-Dawley rat assessed as reduction in free fatty acid level in plasma at 1 mg/kg, po after 1 hr relative to vehicle-treated control; assay type: functional; set-up: scale not given: the % may be the effect or the level left
Rattus norvegicus [13] = species: Rattus norvegicus; assay: Nephrotoxicity in rat assessed as increase in serum blood urea nitrogen level; assay type: toxicity, organism-based; settings: in vivo
Mus musculus [14] = assay: Nephrotoxicity in CD1 mouse assessed as increase in serum blood urea nitrogen level at 100 mg/kg; assay type: toxicity, organism-based; set-up: dose 100 mg/kg; settings: in vivo
Mus musculus [15] = assay: Nephrotoxicity in CD1 mouse assessed as increase in creatinine level at 100 mg/kg; assay type: toxicity, organism-based; set-up: dose 100 mg/kg; settings: in vivo
Canis familiaris [16] = assay: Antidyslipidemic activity in fasted beagle dog assessed as reduction in free fatty acid level in plasma at 2 mg/kg, po after 1 hr relative to vehicle-treated control; assay type: functional, Canis lupus familiaris; set-up: scale not given: the % may be the effect or the level left
Rattus norvegicus [17] = species: Rattus norvegicus; assay: Nephrotoxicity in rat assessed as increase in creatinine level; assay type: toxicity, organism-based; settings: in vivo
Liver [18] = assay: Intrinsic clearance in dog liver microsomes assessed per 10^6 cells; assay type: ADME, Canis lupus familiaris, Microsome
[19] = molecular target: Voltage-gated inwardly rectifying potassium channel KCNH2 (Homo sapiens, UniProt Q12809); assay: Inhibition of human ERG up to 10 uM by patch clamp assay
Canis familiaris [20] = assay: Toxicity in fasted beagle dog assessed as behavioural changes at 30 mg/kg, po relative to control; assay type: organism-based, Canis lupus familiaris; set-up: dose 30 mg/kg, route oral; settings: in vivo
Rattus norvegicus [21] = assay: Antidyslipidemic activity in fasted Sprague-Dawley rat assessed as reduction in free fatty acid level in plasma at 3 mg/kg, po up to 2 hrs; assay type: functional, organism-based; set-up: dose 3 mg/kg
Cytochrome P450 3A4 = Cytochrome P450 3A4 (Homo sapiens, UniProt P08684); assay: Inhibition of human CYP3A4; assay type: ADME
Canis familiaris [22] = assay: Toxicity in fasted beagle dog assessed as behavioural changes at 1 to 10 mg/kg, po; assay type: organism-based, Canis lupus familiaris; set-up: dose 1-10 mg/kg, route oral; settings: in vivo
[23] = AUC (0 to 24 hrs) in beagle dog at 1 mg/kg, po; assay type: ADME, organism-based, Canis lupus familiaris; set-up: time < 24 hr, dose 1 mg/kg, route oral; settings: plasma
[24] = Oral bioavailability in Sprague-Dawley rat at 5 mg/kg; assay type: ADME, organism-based; settings: in vivo
Liver microsomes [25] = assay: Intrinsic clearance in rat liver microsomes assessed per 10^6 cells; assay type: ADME, Microsome
Rattus norvegicus [26] = assay: Antidyslipidemic activity in po dosed fasted Sprague-Dawley rat assessed as reduction in triglyceride level in plasma; assay type: functional
Mus musculus [27] = assay: Nephrotoxicity in CD1 mouse at 100 mg/kg, po administered qd for 5 days measured 2 hrs post-last dose; assay type: toxicity, organism-based; set-up: dose 100 mg/kg, route oral; settings: in vivo
[28] = AUC (0 to 24 hrs) in Sprague-Dawley rat at 5 mg/kg, po; assay type: ADME, organism-based; set-up: time < 24 hr, dose 5 mg/kg, route oral; settings: plasma
Liver [29] = assay: Intrinsic clearance in mouse liver microsomes assessed per 10^6 cells; assay type: ADME, Microsome
Cytochrome P450 2D6 = Cytochrome P450 2D6 (Homo sapiens, UniProt P10635); assay: Inhibition of human CYP2D6; assay type: ADME
Cytochrome P450 1A2 = molecular target: T1, Cytochrome P450 1A2 (Homo sapiens, UniProt P05177); assay: Inhibition of human CYP1A2; assay type: ADME
T1 sequence (P05177 whole entry): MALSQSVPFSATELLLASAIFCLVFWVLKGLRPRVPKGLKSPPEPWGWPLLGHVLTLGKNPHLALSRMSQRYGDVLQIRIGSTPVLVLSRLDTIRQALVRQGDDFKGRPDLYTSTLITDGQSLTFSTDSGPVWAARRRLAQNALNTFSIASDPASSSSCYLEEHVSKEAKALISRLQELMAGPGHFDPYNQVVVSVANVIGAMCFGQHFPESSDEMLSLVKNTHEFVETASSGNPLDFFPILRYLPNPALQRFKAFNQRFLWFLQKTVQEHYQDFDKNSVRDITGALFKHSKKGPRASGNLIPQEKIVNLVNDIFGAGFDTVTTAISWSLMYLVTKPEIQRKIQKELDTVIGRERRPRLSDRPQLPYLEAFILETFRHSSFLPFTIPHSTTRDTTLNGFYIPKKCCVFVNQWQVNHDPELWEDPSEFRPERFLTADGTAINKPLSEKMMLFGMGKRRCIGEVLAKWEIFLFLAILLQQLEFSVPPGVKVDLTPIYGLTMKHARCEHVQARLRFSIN

Canis familiaris [30] = assay: Antidyslipidemic activity in fasted beagle dog assessed as reduction in free fatty acid level in plasma at 1 mg/kg, po after 1 hr relative to vehicle-treated control; assay type: functional, Canis lupus familiaris; set-up: scale not given: the % may be the effect or the level left
Canis familiaris [31] = assay: Toxicity in fasted beagle dog assessed as change in skin colour at 1 to 10 mg/kg, po; assay type: organism-based, Canis lupus familiaris; set-up: dose 1-10 mg/kg, route oral; settings: in vivo
Liver microsomes [32] = assay: Intrinsic clearance in human liver microsomes assessed per 10^6 cells; assay type: ADME, Microsome
Rattus norvegicus [33] = assay: Antidyslipidemic activity in fasted Sprague-Dawley rat assessed as reduction in free fatty acid level in plasma at 3 mg/kg, po after 2 hrs; assay type: functional, organism-based; set-up: dose 3 mg/kg
Canis familiaris [34] = assay: Toxicity in fasted beagle dog assessed as increase in cutaneous blood flow at 30 mg/kg, po relative to control; assay type: organism-based, Canis lupus familiaris; set-up: dose 30 mg/kg, route oral; settings: in vivo
[35] = Oral bioavailability in beagle dog at 1 mg/kg; assay type: ADME, organism-based, Canis lupus familiaris; settings: in vivo
Cytochrome P450 2C9 = Cytochrome P450 2C9 (Homo sapiens, UniProt P11712); assay: Inhibition of human CYP2C9; assay type: ADME
Canis familiaris [36] = assay: Toxicity in fasted beagle dog assessed as flushing at 1 to 10 mg/kg, po; assay type: organism-based, Canis lupus familiaris; set-up: dose 1-10 mg/kg, route oral; settings: in vivo
Canis familiaris [37] = assay: Antidyslipidemic activity in po dosed fasted beagle dog assessed as reduction in free fatty acid level in plasma relative to vehicle-treated control; assay type: functional, organism-based; settings: Canis lupus familiaris
Canis familiaris [38] = assay: Antidyslipidemic activity in fasted beagle dog assessed as reduction in free fatty acid level in plasma at 0.3 mg/kg, po after 1 hr relative to vehicle-treated control; assay type: functional, Canis lupus familiaris; set-up: scale not given: the % may be the effect or the level left
Mus musculus [39] = species: Mus musculus; assay: Nephrotoxicity in CD1 mouse assessed as acute renal necrosis; assay type: toxicity, organism-based; settings: in vivo

Chain of Hydroxycarboxylic acid receptor 2 (Rattus norvegicus, UniProt Q80Z39) (Q80Z39 whole entry): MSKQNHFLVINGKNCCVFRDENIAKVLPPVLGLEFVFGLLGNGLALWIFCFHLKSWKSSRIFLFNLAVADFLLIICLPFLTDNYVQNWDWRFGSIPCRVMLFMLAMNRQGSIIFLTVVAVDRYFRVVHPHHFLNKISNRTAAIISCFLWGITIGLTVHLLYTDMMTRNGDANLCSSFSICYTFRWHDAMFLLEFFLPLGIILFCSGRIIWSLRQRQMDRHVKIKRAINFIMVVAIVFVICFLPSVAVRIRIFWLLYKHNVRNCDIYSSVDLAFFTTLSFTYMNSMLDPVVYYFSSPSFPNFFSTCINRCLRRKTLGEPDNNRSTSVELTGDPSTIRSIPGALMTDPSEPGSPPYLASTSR
Chain of Hydroxycarboxylic acid receptor 3 (P49019 whole entry): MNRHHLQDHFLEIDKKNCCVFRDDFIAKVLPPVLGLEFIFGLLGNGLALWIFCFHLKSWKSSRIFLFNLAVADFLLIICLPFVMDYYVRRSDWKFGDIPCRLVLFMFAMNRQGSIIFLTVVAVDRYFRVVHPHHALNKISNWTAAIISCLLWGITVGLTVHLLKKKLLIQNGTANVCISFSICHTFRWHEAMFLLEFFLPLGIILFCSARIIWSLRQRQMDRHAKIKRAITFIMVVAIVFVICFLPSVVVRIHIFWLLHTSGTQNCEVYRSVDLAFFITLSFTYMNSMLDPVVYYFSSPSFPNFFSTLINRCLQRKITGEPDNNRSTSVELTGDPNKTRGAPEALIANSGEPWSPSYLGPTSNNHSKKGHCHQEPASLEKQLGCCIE
Chain of Hydroxycarboxylic acid receptor 2 (Mus musculus, UniProt Q9EP66) (Q9EP66 whole entry): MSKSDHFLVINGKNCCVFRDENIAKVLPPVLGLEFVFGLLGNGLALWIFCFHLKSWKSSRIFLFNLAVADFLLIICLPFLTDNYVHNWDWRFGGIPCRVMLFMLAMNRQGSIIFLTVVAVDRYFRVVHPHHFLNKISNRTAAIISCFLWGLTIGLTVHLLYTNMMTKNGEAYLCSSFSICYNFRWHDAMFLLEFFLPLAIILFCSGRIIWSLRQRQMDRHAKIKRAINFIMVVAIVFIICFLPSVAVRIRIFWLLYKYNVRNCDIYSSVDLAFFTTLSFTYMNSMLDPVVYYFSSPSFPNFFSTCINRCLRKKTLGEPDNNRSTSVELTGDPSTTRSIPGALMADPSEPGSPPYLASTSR
Chain of Cytochrome P450 2C9 (P11712 whole entry): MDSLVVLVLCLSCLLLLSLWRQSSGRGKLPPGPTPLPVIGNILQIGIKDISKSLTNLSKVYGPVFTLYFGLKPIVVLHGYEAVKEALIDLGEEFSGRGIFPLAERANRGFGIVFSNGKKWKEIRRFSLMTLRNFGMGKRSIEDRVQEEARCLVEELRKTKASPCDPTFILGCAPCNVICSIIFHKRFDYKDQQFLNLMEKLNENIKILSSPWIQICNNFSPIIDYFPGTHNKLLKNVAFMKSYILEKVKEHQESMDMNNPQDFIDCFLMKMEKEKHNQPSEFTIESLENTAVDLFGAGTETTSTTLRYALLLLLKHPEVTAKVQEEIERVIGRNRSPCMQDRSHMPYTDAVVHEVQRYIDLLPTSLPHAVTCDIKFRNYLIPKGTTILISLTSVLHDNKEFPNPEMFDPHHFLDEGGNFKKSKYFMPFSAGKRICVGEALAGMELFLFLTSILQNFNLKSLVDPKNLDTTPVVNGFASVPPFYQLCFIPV
Chain of Cytochrome P450 3A4 (P08684 whole entry): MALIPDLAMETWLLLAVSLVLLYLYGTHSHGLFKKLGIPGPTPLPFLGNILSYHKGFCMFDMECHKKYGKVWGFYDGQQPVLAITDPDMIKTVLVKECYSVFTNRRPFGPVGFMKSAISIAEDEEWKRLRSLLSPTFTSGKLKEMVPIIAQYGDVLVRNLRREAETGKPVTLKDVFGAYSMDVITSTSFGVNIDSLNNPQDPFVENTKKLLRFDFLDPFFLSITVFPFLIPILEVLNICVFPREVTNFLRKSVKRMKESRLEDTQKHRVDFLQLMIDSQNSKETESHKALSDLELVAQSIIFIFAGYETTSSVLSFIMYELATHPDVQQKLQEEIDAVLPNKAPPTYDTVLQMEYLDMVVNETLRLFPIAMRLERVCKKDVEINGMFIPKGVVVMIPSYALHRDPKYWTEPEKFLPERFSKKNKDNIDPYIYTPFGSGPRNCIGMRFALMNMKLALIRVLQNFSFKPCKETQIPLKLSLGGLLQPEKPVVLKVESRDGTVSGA
Chain of Cytochrome P450 2D6 (P10635 whole entry): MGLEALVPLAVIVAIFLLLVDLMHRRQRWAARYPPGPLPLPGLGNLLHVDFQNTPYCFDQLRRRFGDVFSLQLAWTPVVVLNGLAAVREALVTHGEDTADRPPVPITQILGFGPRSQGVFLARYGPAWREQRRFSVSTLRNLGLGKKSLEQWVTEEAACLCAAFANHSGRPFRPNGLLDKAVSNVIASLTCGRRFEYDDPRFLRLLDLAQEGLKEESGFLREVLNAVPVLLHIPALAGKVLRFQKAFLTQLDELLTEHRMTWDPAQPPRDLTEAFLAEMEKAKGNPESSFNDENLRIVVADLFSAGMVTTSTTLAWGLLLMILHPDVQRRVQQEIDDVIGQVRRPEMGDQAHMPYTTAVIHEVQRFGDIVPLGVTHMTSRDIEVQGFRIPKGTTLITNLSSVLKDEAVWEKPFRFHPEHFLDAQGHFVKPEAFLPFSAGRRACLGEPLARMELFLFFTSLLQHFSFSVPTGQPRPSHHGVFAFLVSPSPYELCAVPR
Chain of Voltage-gated inwardly rectifying potassium channel KCNH2 (Q12809 whole entry): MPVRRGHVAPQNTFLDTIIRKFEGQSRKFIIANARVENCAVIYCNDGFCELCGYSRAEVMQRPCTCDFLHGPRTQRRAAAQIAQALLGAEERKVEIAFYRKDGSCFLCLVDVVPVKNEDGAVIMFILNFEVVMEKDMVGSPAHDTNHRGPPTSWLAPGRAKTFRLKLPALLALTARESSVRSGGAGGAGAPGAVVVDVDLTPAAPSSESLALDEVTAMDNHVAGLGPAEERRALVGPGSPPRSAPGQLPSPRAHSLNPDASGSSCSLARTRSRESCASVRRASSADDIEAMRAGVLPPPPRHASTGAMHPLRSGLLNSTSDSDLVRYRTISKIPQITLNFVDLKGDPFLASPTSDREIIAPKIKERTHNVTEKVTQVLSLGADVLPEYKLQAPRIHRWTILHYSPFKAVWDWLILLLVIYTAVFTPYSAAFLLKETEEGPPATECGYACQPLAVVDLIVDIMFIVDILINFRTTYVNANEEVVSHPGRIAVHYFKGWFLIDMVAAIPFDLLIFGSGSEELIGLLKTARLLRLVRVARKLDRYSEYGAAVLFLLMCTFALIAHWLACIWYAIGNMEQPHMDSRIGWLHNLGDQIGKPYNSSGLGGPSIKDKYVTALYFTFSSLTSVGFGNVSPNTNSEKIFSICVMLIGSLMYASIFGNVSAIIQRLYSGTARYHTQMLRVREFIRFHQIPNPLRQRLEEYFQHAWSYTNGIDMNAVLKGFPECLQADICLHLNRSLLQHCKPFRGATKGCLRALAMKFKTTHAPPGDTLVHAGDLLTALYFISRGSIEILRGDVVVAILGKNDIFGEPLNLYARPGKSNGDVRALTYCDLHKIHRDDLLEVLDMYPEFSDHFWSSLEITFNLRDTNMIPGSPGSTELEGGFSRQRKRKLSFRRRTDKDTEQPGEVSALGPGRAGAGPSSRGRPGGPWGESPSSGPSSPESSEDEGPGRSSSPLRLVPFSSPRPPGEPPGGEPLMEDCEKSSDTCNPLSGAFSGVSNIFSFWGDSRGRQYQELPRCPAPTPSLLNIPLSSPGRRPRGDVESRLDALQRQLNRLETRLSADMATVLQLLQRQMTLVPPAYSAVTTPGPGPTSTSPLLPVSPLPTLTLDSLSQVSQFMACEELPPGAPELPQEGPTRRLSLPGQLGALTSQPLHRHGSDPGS

Compound: O=C(O)c1cccnc1 [NIACIN]
- EC50 [1]: > 10000 nM
- EC50 [2]: 31 nM
- minimal effective dose (Rattus norvegicus [3]): 10 mg/kg
- Activity (Canis familiaris [4]): 38%

Compound: O=c1[nH]c(=O)c2c(CCCC(F)F)cc(=O)oc2[nH]1
- EC50 [1]: 59 nM
- EC50 [5]: 2 nM
- Activity (Canis familiaris [6]): inactive
- Activity (Canis familiaris [7]): Toxic
- Activity (Canis familiaris [4]): 80%
- EC50 [8]: 5 nM
- Activity (Rattus norvegicus [9]): 59%

Compound: CC(C)CCc1cc(=O)oc2[nH]c(=O)[nH]c(=O)c12
- EC50 [1]: 1300 nM
- Activity (Rattus norvegicus [10]): 15%
- Activity (Rattus norvegicus [11]): 16%

Compound: O=c1[nH]c(=O)c2c(CCCC3CC3)cc(=O)oc2[nH]1
- Activity (Rattus norvegicus [12]): 58%
- Activity (Rattus norvegicus [13]): Non-toxic
- Activity (Mus musculus [14]): Toxic
- EC50 [1]: 140 nM
- EC50 [5]: 2 nM
- EC50 [2]: 1 nM
- Activity (Mus musculus [15]): Toxic
- Activity (Canis familiaris [16]): 80%
- Activity (Rattus norvegicus [9]): 49%
- Activity (Rattus norvegicus [17]): Non-toxic

Compound: CC1(CCCc2cc(=O)oc3[nH]c(=O)[nH]c(=O)c23)CC1 [SCH-900271]
- Activity (Rattus norvegicus [12]): 53%
- CLH (Liver [18]): < 1 µL/min
- EC50 [1]: 96 nM
- inhibition (INH) [19]: Not Active
- Activity (Canis familiaris [20]): Non-toxic
- Activity (Rattus norvegicus [21]): Active
- IC50 (Cytochrome P450 3A4): > 50000 nM
- Activity (Canis familiaris [22]): Non-toxic
- AUC(0-t) at 24 h [23]: 7.2 µM·h
- EC50 [5]: 8 nM
- EC50 [2]: 5 nM
- bioavailability [24]: 76%
- Activity (Rattus norvegicus [3]): Dose-dependent effect
- ED50 (Rattus norvegicus [3]): 0.5 mg/kg
- minimal effective dose (Rattus norvegicus [3]): 3 mg/kg
- CLH (Liver microsomes [25]): 10 µL/min
- Activity (Rattus norvegicus [26]): Dose-dependent effect
- ED50 (Rattus norvegicus [26]): 0.5 mg/kg
- minimal effective dose (Rattus norvegicus [26]; read-out: MED): 3 mg/kg
- Activity (Mus musculus [27]): Non-toxic
- AUC(0-t) at 24 h [28]: 7.6 µM·h
- CLH (Liver [29]): 8.7 µL/min
- IC50 (Cytochrome P450 2D6): > 50000 nM
- IC50 (Cytochrome P450 1A2): > 50000 nM
- Activity (Canis familiaris [30]): 50%
- EC50 [8]: 6 nM
- Activity (Canis familiaris [31]): Non-toxic
- CLH (Liver microsomes [32]): 1.6 µL/min
- Activity (Rattus norvegicus [33]): inactive
- fold change (FC) (Canis familiaris [34]): 5
- bioavailability [35]: 40%
- IC50 (Cytochrome P450 2C9): > 50000 nM
- Activity (Rattus norvegicus [9]): 53%
- Activity (Canis familiaris [36]): Non-toxic

Compound: O=c1[nH]c(=O)c2c(CCC3CCC3)cc(=O)oc2[nH]1
- Activity (Rattus norvegicus [12]): 50%
- Activity (Rattus norvegicus [13]): Non-toxic
- Activity (Mus musculus [14]): Toxic
- EC50 [1]: 67 nM
- EC50 [5]: 5 nM
- Activity (Mus musculus [15]): Toxic
- EC50 [8]: 4 nM
- Activity (Rattus norvegicus [9]): 31%
- Activity (Rattus norvegicus [17]): Non-toxic

Compound: CCCCc1cc(=O)oc2[nH]c(=O)[nH]c(=O)c12
- Activity (Rattus norvegicus [12]): 29%
- Activity (Rattus norvegicus [13]): Non-toxic
- Activity (Mus musculus [14]): Toxic
- EC50 [1]: 190 nM
- Activity (Canis familiaris [37]): Dose-dependent effect
- EC50 [5]: 8 nM
- EC50 [2]: 16 nM
- Activity (Canis familiaris [38]): 90%
- Activity (Mus musculus [15]): Toxic
- Activity (Mus musculus [39]): Toxic
- EC50 [8]: 12 nM
- Activity (Rattus norvegicus [9]): 40%
- Activity (Rattus norvegicus [17]): Non-toxic
